Results: patent publication EP1073431B1, “USE OF NMDA ANTAGONISTS FOR TREATMENT OF IRRITABLE BOWEL SYNDROME” (AstraZeneca AB, priority 1998, dated 1999)
Structures can show the parent of a compound that is named as a salt.

Tests used:
[1] = test system: visceromotor response (VMR) elicited by colorectal distension (CRD); assay: visceromotor response (VMR) elicited by colorectal distension (CRD) in conscious rats; format: in vivo, Sprague-Dawley rats; settings: for VMR to noxious CRD: CRD 80 mmHg, naive rats; for effect on VMR to CRD: 1-100 nmol, hydrochloride
Description: Adult male Sprague-Dawley rats (250-350g, Harlan, San Diego, CA) served as animal subjects. Rats were housed 5-6 per cage, allowed free access to food and water, and were maintained on a 12 h light-dark cycle (lights on between 06.00 and 18.00 h).
Rats were deeply anesthetized with pentobarbital sodium (45 mg/kg, Nembutal, Abbott Labs, North Chicago, IL) administered intraperitoneally. […] The electrode leads were tunneled subcutaneously and exteriorized at the nape of the neck for future access. Some animals were also implanted with venous catheters in the femoral vein to enable i.v. administration of drugs. For intrathecal (i.t.) drug administration, an i.t. catheter (PE-10 tubing, 8.5 cm long) was inserted through the dura overlying the atlanto-occipital junction and threaded to the level of the lumbar enlargement (Yaksh and Rudy, 1976). The venous or i.t. catheter was surgically anchored to musculature at the back of the neck, and externalized with the electrode leads. The wounds were closed in layers with 4-0 silk. Rats were housed singly and allowed to recuperate for at least 3-5 days prior to testing.
The stimulus employed has been previously described (Gebhart and Sengupta, 1996). Briefly, the descending colon and rectum were distended by pressure-controlled air inflation of a 6 cm long flexible latex balloon tied around a flexible tube (Tygon). The balloon was lubricated (Surgilube, E. Fougera and Co., Melville, NY), inserted intra-anally and anchored by taping the balloon catheter to the base of the tail. […] The behavioral response quantified was the visceromotor response, a contraction of the abdominal and hindlimb (Ness and Gebhart, 1988). EMG activity in the external oblique musculature was quantified by computing the average amplitude (Dr. Alfred Bayati Astra Hässle). Each distension trial lasted 60 s and EMG activity was quantified 20 s before distension (baseline), during distension, and 20 s after distension. The increase in EMG amplitude during distension over baseline was recorded as the response.
On the day of testing, animals were briefly anesthetized with Metophane®, and the balloon was inserted and secured in place as described above. Rats were allowed to recover for 30-40 min, following which two stable control responses to CRD (80 mmHg, 20 s, 4 min interstimulus interval) were obtained.
Drugs were administered i.v. into the femoral vein through the indwelling catheter. All doses were administered in a volume of up to 230 µl followed by a flush with 100 µl of preservative-free saline over a period of 30s. Dose response curves were generated using a cumulative dosing paradigm. The first i.v. injection was made 2 min after the second control response. Subsequent doses were injected 8 min apart, thus allowing two distensions after each dose. Data are reported as the average response to the two distensions.
In one group of animals, memantine was administered to the lumbar enlargement through the indwelling i.t. catheter with the aid of a […] injection needle connected to a 25 ul Hamilton syringe by a length of polyethylene tubing (PE-10). All doses were administered in a volume of 5 µl followed by a flush with 10 µl of preservative-free saline over a period of 1 min. The progress of the injection was continuously monitored by following the movement of an air bubble in the tubing. The dose response curve was generated using a cumulative dosing paradigm. The first i.t. injection was made 2 min after the second control response. Subsequent doses were injected 8 min apart, thus allowing two distensions after each dose. Data are reported as the average response to the two distensions. […]

[2] = test system: pelvic afferent nerve activity; assay: pelvic afferent nerve activity elicited by colorectal distension in anesthetized rats; format: in vivo, Sprague-Dawley rats; settings: intra-arterial, cumulative 1, 3, 6 and 10 mg/kg; CRD 80 mm Hg
Description: General procedures: Male Sprague-Dawley rats 425-450 g) were anesthetized initially with sodium pentobarbital (40-45 mg/kg ip) and maintained with α-chloralose (60 mg kg^-1 h^-1). The trachea was cannulated for mechanical ventilation with room air. The left common carotid artery was cannulated for recording blood pressure. The femoral artery and vein were catheterized for injection of drug and anesthetic, respectively. Rats were paralyzed with pancuronium bromide (0.3 mg/kg i.v.) and ventilated with room air (55-60 strokes/min and 3-4 ml stroke volume). Supplemental doses of pancuronium bromide (0.2-0.3 mg kg^-1 h^-1) were given to maintain paralysis during the course of experiment. The mean arterial blood pressure was monitored continuously and maintained at >80 mm Hg with supplemental intravenous injection of 5% dextrose in saline given in a bolus of 1 to 1.5 ml as required. […]
Recordings of afferent nerve action potentials: The S1 dorsal root was identified and decentralized at its entry to the spinal cord. […] Electrical activity of single units was recorded monopolarly by placing a teased fiber over one arm of a bipolar silver-silver chloride electrode; a fine strand of connective tissue was placed across the other pole of the electrode. […]

[3] = i.v., 1-10 mg/kg, conscious rats (figure legends)
[4] = i.v., most effective dose tested 60 mg/kg
[5] = intrathecal (i.t.), up to a dose of 300nmol, conscious rats

CCNC(Cc1cnccn1)c1ccccc1 (single isomer, unassigned; (+)) [Compound 3, (+) N-ethyl-1-phenyl-2-(3-pyrazine)ethanamine hydrochloride]
effect on viscero-motor responses (VMR) to noxious colorectal distension [1, 3]: dose-dependently (1-10 mg/kg) attenuated VMR | VMR to noxious CRD [1, 4]: 5 % of control

N=C(N)c1cccc(CC(N)c2ccccc2)n1 (stereo not shown) [Compound 1, 2-amidino-6-(2-amino-2-phenyl)-ethylpyridine trihydrochloride]
effect on viscero-motor responses (VMR) to noxious colorectal distension [1, 3]: dose-dependently (1-10 mg/kg) attenuated VMR | VMR to noxious CRD ([1]; i.v., most effective dose tested (dose not given)): 13 % of control | effect on viscero-motor responses (VMR) to noxious colorectal distension [1, 5]: None of the three compounds attenuated VMR

Cl.NCC(=O)NC(Cc1ccccc1)c1ccccc1 (stereo not shown) [Compound 2, 2-amino-N-(1,2-diphenylethyl)acetamide hydrochloride]
effect on viscero-motor responses (VMR) to noxious colorectal distension [1, 3]: dose-dependently (1-10 mg/kg) attenuated VMR | VMR to noxious CRD [1, 4]: 40 % of control | effect on viscero-motor responses (VMR) to noxious colorectal distension [1, 5]: None of the three compounds attenuated VMR

Cl.NC(Cn1cccn1)c1ccccc1 (stereo not drawn) [Compound 4, alpha-phenyl-1H-pyrazole-1-ethanamine hydrochloride]
effect on viscero-motor responses (VMR) to noxious colorectal distension [1, 3]: dose-dependently (1-10 mg/kg) attenuated VMR | VMR to noxious CRD ([1]; i.v., most effective dose tested 100 mg/kg): 10 % of control | effect on viscero-motor responses (VMR) to noxious colorectal distension [1, 5]: None of the three compounds attenuated VMR

CC12CC3CC(C)(C1)CC(N)(C3)C2 [memantine, memantine hydrochloride, reference compound]
effect on viscero-motor responses (VMR) to noxious colorectal distension [1, 3]: dose-dependantly attenuate VMR | VMR to noxious CRD ([1]; i.v., most effective dose tested 10 mg/kg): 28 % of control | effect on VMR to CRD ([1]; intrathecal (i.t.), conscious rats): without effect | effect on VMR to CRD ([1]; intrathecal (i.t.), conscious rats, listed as Memantine): did not attenuate VMR | pelvic nerve activity elicited by distention of the colon [2]: reduced, in a dose-dependent fashion
